Measured values from patent publication US20240158392A1 (Janssen Biotech, Inc., priority 2021, published 2024).
Read-outs that look alike come from different tables or passages of the source.

Biological target: SIK2 (Homo sapiens, UniProt Q9H0K1)
Assay: SIK2 Enzymatic Assay High Version 2 (High ATP)
Type: biochemical
How it was run: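 At room temperature, enzyme (6 nM, 2× final) was preincubated with compound for 30 min, then 6 mM ATP and 400 μM HDAC5tide (both 2× final) were added for 2 h. ADP formed was measured by ADP-Glo Max (2 h reagent, 1 h detection) using luminescence.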

[1] = enzyme 6 nM, 6 mM ATP and 400 μM HDAC5tide (each 2× final concentration), 30 minutes pre-incubation, 2 hours, ADP-Glo Max luminescence, read-out: SIK2 high ATP IC50 (μM) (Test Example 2)

Chain of SIK2 (Q9H0K1 whole entry, species assumed): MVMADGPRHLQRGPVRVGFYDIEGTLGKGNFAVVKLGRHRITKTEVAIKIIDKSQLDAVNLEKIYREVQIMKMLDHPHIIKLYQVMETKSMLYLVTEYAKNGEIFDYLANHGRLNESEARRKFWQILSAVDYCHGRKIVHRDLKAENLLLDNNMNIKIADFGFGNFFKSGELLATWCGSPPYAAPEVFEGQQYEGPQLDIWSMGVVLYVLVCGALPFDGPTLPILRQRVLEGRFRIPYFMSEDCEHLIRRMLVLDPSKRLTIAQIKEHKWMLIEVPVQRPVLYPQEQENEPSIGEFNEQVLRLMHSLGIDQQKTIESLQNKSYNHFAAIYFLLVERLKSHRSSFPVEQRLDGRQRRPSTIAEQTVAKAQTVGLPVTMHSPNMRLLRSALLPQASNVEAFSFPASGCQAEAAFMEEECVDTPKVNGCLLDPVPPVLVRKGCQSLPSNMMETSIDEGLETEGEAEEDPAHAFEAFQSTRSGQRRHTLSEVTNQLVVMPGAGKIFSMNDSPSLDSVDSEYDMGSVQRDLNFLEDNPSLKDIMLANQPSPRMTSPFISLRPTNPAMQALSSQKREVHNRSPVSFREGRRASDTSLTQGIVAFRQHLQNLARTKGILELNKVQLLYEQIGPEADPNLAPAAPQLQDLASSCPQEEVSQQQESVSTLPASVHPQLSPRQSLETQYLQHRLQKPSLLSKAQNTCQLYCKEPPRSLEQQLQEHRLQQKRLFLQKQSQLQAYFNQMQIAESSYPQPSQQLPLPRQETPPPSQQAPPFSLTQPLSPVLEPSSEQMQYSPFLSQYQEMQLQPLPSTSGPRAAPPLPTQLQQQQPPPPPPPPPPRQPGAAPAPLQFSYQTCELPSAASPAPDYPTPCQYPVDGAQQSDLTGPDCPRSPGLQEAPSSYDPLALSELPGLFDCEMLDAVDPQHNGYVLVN

IC50 [1] [µM]	Structure (SMILES)	IC50 [µM]
0.0127	Cc1cc(Nc2cc3cc(-c4cc(NCC(F)F)ncc4OCC(C)(C)C#N)ccn3n2)nc(C)n1 [Example 667, 3-[[6-(2,2-difluoroethylamino)-4-[2-[(2,6-dimethylpyrimidin-4-yl)amino]pyrazolo[1,5-a]pyridin-5-yl]-3-pyridyl]oxy]-2,2-dimethyl-propanenitrile]	–
0.0035	Cc1cc(-c2ccn3nc(Nc4cc(C)nc(C)n4)cc3c2)c(OC[C@H]2CCS(=O)(=O)C2)cn1 (single isomer, unassigned) [Example 363, (*R)—N-(2,6-dimethylpyrimidin-4-yl)-5-[5-[(1,1-dioxothiolan-3-yl)methoxy]-2-methyl-4-pyridyl]pyrazolo[1,5-a]pyridin-2-amine]	–
0.0494	Cc1cc(-c2ccn3nc(Nc4cc(C)nc(C)n4)cc3c2)c(OCCN)cn1 [Example 557, 5-[5-(2-aminoethoxy)-2-methyl-4-pyridyl]-N-(2,6-dimethylpyrimidin-4-yl)pyrazolo[1,5-a]pyridin-2-amine]	–
0.00405	CNc1nc(C)cc(Nc2cc3cc(-c4cc(OCC(F)F)ncc4OCC(C)(C)C#N)ccn3n2)n1 [Example 725, 3-[[6-(2,2-difluoroethoxy)-4-[2-[[6-methyl-2-(methylamino)pyrimidin-4-yl]amino]pyrazolo[1,5-a]pyridin-5-yl]-3-pyridyl]oxy]-2,2-dimethyl-propanenitrile]	–
0.149	Cc1cc(Nc2cc3cc(-c4cc(C)ncc4OCC(C)(C)O)ccn3n2)nc(C(=O)NC2CC2)c1 [Example 638, N-cyclopropyl-6-[[5-[5-(2-hydroxy-2-methyl-propoxy)-2-methyl-4-pyridyl]pyrazolo[1,5-a]pyridin-2-yl]amino]-4-methyl-pyridine-2-carboxamide]	–
< 0.000847	CO[C@H]1CN(C)C[C@@H]1COc1cnc(C)cc1-c1ccn2nc(NC(=O)C3CC3)cc2c1 (single isomer, unassigned) [Example 461, Trans-*R, *R—N-[5-[5-[(4-methoxy-1-methyl-pyrrolidin-3-yl)methoxy]-2-methyl-4-pyridyl]pyrazolo[1,5-a]pyridin-2-yl]cyclopropanecarboxamide]	–
0.984	Cc1cc(-c2cn3cc(Nc4cncc(C)n4)nc3cn2)c(O[C@H]2CC[C@H](O)CC2)cn1 [Example 657, 4-[[6-methyl-4-[2-[(6-methylpyrazin-2-yl)amino]imidazo[1,2-a]pyrazin-6-yl]-3-pyridyl]oxy]cyclohexanol]	–
0.136	Cc1cc(-c2cn3cc(NC(=O)C4CC4)nc3cn2)c(O[C@H]2CC[C@H](O)CC2)cn1 [Example 653, N-[6-[5-(4-hydroxycyclohexoxy)-2-methyl-4-pyridyl]imidazo[1,2-a]pyrazin-2-yl]cyclopropanecarboxamide]	–
0.00143	COc1cc(-c2ccn3nc(Nc4cc(C)nc(C)n4)cc3c2)c(OC[C@@H]2CNCCO2)cn1 [Example 496, N-(2,6-dimethylpyrimidin-4-yl)-5-[2-methoxy-5-[[(2S)-morpholin-2-yl]methoxy]-4-pyridyl]pyrazolo[1,5-a]pyridin-2-amine]	–
0.0313	COc1cc(Nc2cc3cc(-c4cc(C)ncc4OCC(C)(C)O)ccn3n2)cc(OC)c1 [Example 646, 1-[[4-[2-(3,5-dimethoxyanilino)pyrazolo[1,5-a]pyridin-5-yl]-6-methyl-3-pyridyl]oxy]-2-methyl-propan-2-ol]	–
0.0555	CC(C)(C#N)COc1cnc(Cl)cc1-c1ccn2nc(NC(=O)C3CC3)cc2c1 [Example 666, N-[5-[2-chloro-5-(2-cyano-2-methyl-propoxy)-4-pyridyl]pyrazolo[1,5-a]pyridin-2-yl]cyclopropanecarboxamide]	–
0.014	Cc1cc(-c2ccn3nc(Nc4cc(C)nc(C)n4)cc3c2)c(OCC2CC(=O)N(C)C2)cn1 (single isomer, unassigned) [Example 547, (*R)-4-[[4-[2-[(2,6-dimethylpyrimidin-4-yl)amino]pyrazolo[1,5-a]pyridin-5-yl]-6-methyl-3-pyridyl]oxymethyl]-1-methyl-pyrrolidin-2-one]	–
0.0443	Cc1cc(Nc2cc3cc(-c4cc(C#N)ccc4O[C@H]4CC[C@H](O)CC4)ccn3n2)nc(C)n1 [Example 483, 3-[2-[(2,6-dimethylpyrimidin-4-yl)amino]pyrazolo[1,5-a]pyridin-5-yl]-4-(4-hydroxycyclohexoxy)benzonitrile]	–
0.0734	Cc1cc(-c2ccn3nc(Nc4cc(C)nc(C(=O)NCC(F)(F)F)n4)cc3c2)c(OCC(C)(C)O)cn1 [Example 644, 4-[[5-[5-(2-hydroxy-2-methyl-propoxy)-2-methyl-4-pyridyl]pyrazolo[1,5-a]pyridin-2-yl]amino]-6-methyl-N-(2,2,2-trifluoroethyl)pyrimidine-2-carboxamide]	–
0.0233	Cc1cc(-c2ccn3nc(Nc4cc(C)c(C(=O)NC5CC5)c(C)n4)cc3c2)c(OCC(C)(C)O)cn1 [Example 335, N-cyclopropyl-6-[[5-[5-(2-hydroxy-2-methyl-propoxy)-2-methyl-4-pyridyl]pyrazolo[1,5-a]pyridin-2-yl]amino]-2,4-dimethyl-pyridine-3-carboxamide]	–
0.00117	Cc1cc(-c2ccn3nc(Nc4cc(C)c(=O)n(C)n4)cc3c2)c(O[C@H]2CC[C@@H](S(C)(=O)=O)CC2)cn1 [Example 305, 2,4-dimethyl-6-((5-(2-methyl-5-(((1s,4s)-4-(methylsulfonyl)cyclohexyl)oxy)pyridin-4-yl)pyrazolo[1,5-a]pyridin-2-yl)amino)pyridazin-3(2H)-one]	–

More lines, now with the values behind:

Structure (SMILES)	IC50 [1] [µM]	IC50 [µM]
Cc1cc(-c2cc3cc(NC(=O)C4CC4)nn3cn2)c(O[C@H]2C[C@H]3COC[C@@H](C2)N3C)cn1 [Example 319, N-[5-[2-methyl-5-[[(1S,5R)-9-methyl-3-oxa-9-azabicyclo[3.3.1]nonan-7-yl]oxy]-4-pyridyl]pyrazolo[1,5-c]pyrimidin-2-yl]cyclopropanecarboxamide]	–	0.00194
Cc1cc(-c2ccn3nc(Nc4ccnc(C)n4)cc3c2)c(O[C@H]2C[C@H]3COC[C@@H](C2)N3C)cn1 [Example 410, 5-[2-methyl-5-[[(1R,5S,7s)-9-methyl-3-oxa-9-azabicyclo[3.3.1]nonan-7-yl]oxy]-4-pyridyl]-N-(2-methylpyrimidin-4-yl)pyrazolo[1,5-a]pyridin-2-amine]	–	< 0.000847
Cc1cc(-c2ccn3nc(Nc4cc(C)nc(C)n4)cc3c2)c(OC[C@H]2CCN2C)cn1 [Example 527, N-(2,6-dimethylpyrimidin-4-yl)-5-[2-methyl-5-[[(2R)-1-methylazetidin-2-yl]methoxy]-4-pyridyl]pyrazolo[1,5-a]pyridin-2-amine]	–	0.0081
Cc1cc(-c2ccn3nc(Nc4ccc(C(N)=O)cn4)cc3c2)c(O[C@H]2C[C@H]3COC[C@@H](C2)N3)cn1 [Example 376, 6-[[5-[2-methyl-5-[[(1R,5S,7s)-3-oxa-9-azabicyclo[3.3.1]nonan-7-yl]oxy]-4-pyridyl]pyrazolo[1,5-a]pyridin-2-yl]amino]pyridine-3-carboxamide]	–	0.00136
Cc1cc(-c2ccn3nc(Nc4nn(C)c5ccccc45)cc3c2)c(OC[C@H]2OCC[C@@H]2O)cn1 [Example 299, (2R,3S)-2-[[6-methyl-4-[2-[(1-methylindazol-3-yl)amino]pyrazolo[1,5-a]pyridin-5-yl]-3-pyridyl]oxymethyl]tetrahydrofuran-3-ol]	0.00675	–
Cc1cc(-c2ccn3nc(Nc4cccnn4)cc3c2)c(O[C@H]2C[C@H]3COC[C@@H](C2)N3C)cn1 [Example 419, 5-[2-methyl-5-[[(1R,5S,7s)-9-methyl-3-oxa-9-azabicyclo[3.3.1]nonan-7-yl]oxy]-4-pyridyl]-N-pyridazin-3-yl-pyrazolo[1,5-a]pyridin-2-amine]	–	< 0.000847
Cc1cc(Nc2cc3cc(-c4cc(C)ncc4OCC(C)(C)O)ccn3n2)nc(C(=O)N(C)C)c1 [Example 244, 6-[[5-[5-(2-hydroxy-2-methyl-propoxy)-2-methyl-4-pyridyl]pyrazolo[1,5-a]pyridin-2-yl]amino]-N,N,4-trimethyl-pyridine-2-carboxamide]	0.0218	–
Cc1cc(-c2ccn3nc(Nc4cc(C)nc(C)n4)cc3c2)c(O[C@H]2CC[C@H](S(C)(=O)=O)CC2)cn1 [Example 266, N-(2,6-dimethylpyrimidin-4-yl)-5-[2-methyl-5-(4-methylsulfonylcyclohexoxy)-4-pyridyl]pyrazolo[1,5-a]pyridin-2-amine]	0.00338	–
Cc1cc(-c2ccn3nc(Nc4cn(C)nn4)cc3c2)c(O[C@H]2C[C@H]3COC[C@@H](C2)N3C)cn1 [Example 414, 5-[2-methyl-5-[[(1R,5S,7s)-9-methyl-3-oxa-9-azabicyclo[3.3.1]nonan-7-yl]oxy]-4-pyridyl]-N-(1-methyltriazol-4-yl)pyrazolo[1,5-a]pyridin-2-amine]	–	0.0152
Cc1cc(-c2ccn3nc(Nc4cn(C)nc4F)cc3c2)c(O[C@H]2C[C@H]3COC[C@@H](C2)N3C)cn1 [Example 119, N-(3-fluoro-1-methyl-1H-pyrazol-4-yl)-5-(2-methyl-5-(((1R,5S,7s)-9-methyl-3-oxa-9-azabicyclo[3.3.1]nonan-7-yl)oxy)pyridin-4-yl)pyrazolo[1,5-a]pyridin-2-amine]	–	0.00127
Cc1cc(-c2ccn3nc(Nc4nccc(C)c4F)cc3c2)c(O[C@H]2C[C@H]3COC[C@@H](C2)N3)cn1 [Example 338, N-(3-fluoro-4-methyl-2-pyridyl)-5-[2-methyl-5-[[(1S,5R)-3-oxa-9-azabicyclo[3.3.1]nonan-7-yl]oxy]-4-pyridyl]pyrazolo[1,5-a]pyridin-2-amine]	–	0.00325
Cc1cc(-c2ccn3nc(Nc4cc(C)nc(C)n4)cc3c2)c(O[C@H]2C[C@H](N)C2)cn1 [Example 545, 5-(5-((1r,3r)-3-aminocyclobutoxy)-2-methylpyridin-4-yl)-N-(2,6-dimethylpyrimidin-4-yl)pyrazolo[1,5-a]pyridin-2-amine]	0.0134	–
Cc1cc(-c2ccn3nc(Nc4cc(C)nc(C)n4)cc3c2)c(OC[C@@H]2CN(C)C(=O)N2)cn1 [Example 365, (4S)-4-[[4-[2-[(2,6-dimethylpyrimidin-4-yl)amino]pyrazolo[1,5-a]pyridin-5-yl]-6-methyl-3-pyridyl]oxymethyl]-1-methyl-imidazolidin-2-one]	–	< 0.000847
